Measured values: patent US4415546A, “Biologically active analogs of ACTH and radioimmuno assay therefor” (priority 1981, dated 1983)
Where two headings read alike, the source gives them in different places. No end group written: not given here.

Tests used:
[1] = tested on: isolated rat adrenocortical cells; assay: isolated rat adrenocortical cell assay (corticosterone production); type: cell-based
ACTH antiserum = assay: standard radioimmunoassay, displacement of [125I]-Tyr23,Phe2,Nle4-ACTH (1-38) from ACTH antiserum; type: binding, rabbit
Procedure: Standard radioimmunoassays were performed as follows: Unlabeled ACTH or other peptides in a volume of 50 μl were mixed with 50 μl antiserum and 50 μl Protein A immunoprecipitant washed as described above. All components were prepared in assay buffer and incubated at 4° for 24 hr. […] One ml of assay buffer was added and the tubes were processed as described above for counting in the Beckman 4000 counter.

ACTH antiserum 46-1 = assay: saturation curves of ACTH antiserum with labeled ACTH; type: binding, rabbit
Procedure: Varying amounts of labeled ACTH were incubated with the antiserum at a final dilution of 1:58,000 in a total volume of 200 μl for 2 hr. at room temperature. Blanks containing no antiserum were included for each point.
25 μl of this washed protein A immunoprecipitant was added and the incubation was continued at 4° for 18 hr. One ml of assay buffer at 4° was added to a series of tubes and the tubes were then centrifuged at 2500 rpm for 15 min in a Beckman model TJ-6 refrigerated centrifuge.
The tubes containing [^3 H]-ACTH were processed similarly, drained, wiped and then 0.5 ml 0.1 N NaOH was added. The tubes were stirred on a Vortex mixer for 20 sec. and incubated at 37° for 30 min. An aliquot (0.4 ml) of the NaOH extract was mixed with phase combininhg scintillant (PCS, Amersham) and counted in a Packard PRIAS scintillation counter.

steroidogenesis = conditions: literature values; cited from earlier work
[2] = isolated rat adrenocortical cells, result in words

monoiodo Tyr^23,Phe^2,Nle^4 -ACTH (1-38)
steroidogenic potency compared with ACTH [1, 2]: equipotent with ACTH
displacement curve compared with ACTH (ACTH antiserum; result in words): identical

Phe^2, Nle^4 -ACTH-(1-38)
maximal stimulation of corticosterone production compared with human ACTH [1, 2]: same maximal degree as human ACTH
steroidogenic potency compared with ACTH [1, 2]: as potent as ACTH

[^125 I]-Tyr^23,Phe^2,Nle^4 -ACTH (1-38)
EC50 ([1]; corticosterone production, 37° for 1 hr, non-linear least squares analysis, read-out: concentration required for half maximal stimulation of steroidogenesis): 0.0407 ± 0.0069 nM
steroidogenic potency compared with ACTH [1, 2]: indistinguishable from that of ACTH
Kd (ACTH antiserum 46-1; saturation binding, no preincubation, read-out: concentration needed for half-maximal binding of the radioligand): 0.096 ± 0.016 nM

[^125 I]ACTH: 125I labelled natural ACTH prepared by a lactoperoxidase process (McIlhinney and Schulster) (SYSMEHFRWGKPVGKKRRPVKVYPNGAEDESAEAFPLEF; also: 125I label (lactoperoxidase); UniProt P01189 138-176, looked up)
steroidogenic activity / potency relative to natural ACTH (steroidogenesis): 50%

H-Ser^1 -Tyr-Ser-Met-Glu^5 -His-Phe-Arg-Trp-Gly^10 -Lys-Pro-Val-Gly-Lys^15 -Lys-Arg-Arg-Pro-Val^20 -Lys-Val-Tyr-Pro-Asn^25 -Gly-Ala-Glu-Asp-Glu^30 -Ser-Ala-Glu-Ala-Phe^35 -Pro-Leu-Glu-Phe^39 -Oh [ACTH]
Kd (ACTH antiserum 46-1; from saturation curves, antiserum dilution 1:58,000, read-out: apparent dissociation constant for the interaction with antiserum 46-1): 0.096 ± 0.016 nM
IC50 (ACTH antiserum; preincubation of the antiserum with the competing peptide, read-out: value for 50% displacement of radioligand): 0.0203 ± 0.0033 nM
equivalents of unlabeled hormone for 50% displacement of the radioligand (ACTH antiserum; under the preincubation conditions): less than one equivalent
equivalents of unlabeled hormone for 50% displacement of the radioligand (ACTH antiserum; without preincubation): one equivalent
